Laboratory results taken from PubChem BioAssay (NCI).
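Test compounds were applied to cells in 96-well plates for 48 hours at 5 doses. TGI marks complete inhibition of growth.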

Key:
Test in all cases: NCI-60 cell line screen, 48 h
SF-539 CNS = system: SF-539 CNS
RXF 393 renal = system: RXF 393 renal
OVCAR-4 ovarian = system: OVCAR-4 ovarian
NCI/ADR-RES ovarian = system: NCI/ADR-RES ovarian
M14 melanoma = system: M14 melanoma
HCT-116 colon = system: HCT-116 colon
A498 renal = system: A498 renal
A549 NSCLC = system: A549 NSCLC
CCRF-CEM leukemia = system: CCRF-CEM leukemia
SN12C renal = system: SN12C renal
SNB-19 CNS = system: SNB-19 CNS
DU-145 prostate = system: DU-145 prostate
OVCAR-3 ovarian = system: OVCAR-3 ovarian

| SMILES | TGI (SF-539 CNS) | TGI (RXF 393 renal) | TGI (OVCAR-4 ovarian) | TGI (NCI/ADR-RES ovarian) | TGI (M14 melanoma) | TGI (HCT-116 colon) | TGI (A498 renal) | TGI (A549 NSCLC) | TGI (CCRF-CEM leukemia) | TGI (SN12C renal) | TGI (SNB-19 CNS) | TGI (DU-145 prostate) | TGI (OVCAR-3 ovarian) |
| --- | --- | --- | --- | --- | --- | --- | --- | --- | --- | --- | --- | --- | --- |
| COC(=O)n1c(=O)nc2c3c(ncn21)Oc1c(c(-c2ccccc2)nn1-c1ccccc1)C3c1ccc(Cl)cc1 (centres undefined) | 3.14 µM | 2.98 µM | 4.66 µM | 2.77 µM | 2.75 µM | 2.17 µM | 5.02 µM | 3.15 µM | 3.27 µM | 3.1 µM | 3.13 µM | 2.98 µM | 2.72 µM |
| O=c1nc2n(CCO)c(-c3ccccc3)c(-c3ccccc3)nc-2c(=O)[nH]1 | > 100 µM | > 100 µM | > 100 µM | > 100 µM | > 100 µM | > 100 µM | > 100 µM | > 100 µM | > 100 µM | > 100 µM | > 100 µM | > 100 µM | > 100 µM |
| CCCCCCN(C(=O)Oc1ccccc1)C(C#N)c1ccccc1 (centres undefined) | > 100 µM | > 100 µM | > 100 µM | > 100 µM | > 100 µM | > 100 µM | > 100 µM | > 100 µM | > 100 µM | > 100 µM | > 100 µM | > 100 µM | > 100 µM |
